Experimental data as given in patent US8003687B2, “Esters of compounds in the leptomycin family” (Kosan Biosciences Incorporated, priority 2005, dated 2011).
Where two headings read alike, the source gives them in different places.

Assays:
CCRF-CEM = test: inhibition of tumor cell proliferation, CCRF-CEM; format: cell-based, human; settings: read-out: Tumor Cell Line (IC50, nM) CCRF-CEM
Procedure: (§1) The biological activity of compounds of this invention was evaluated by measuring their inhibitory effect on the proliferation of various tumor cell lines. MCF-7, A549, and SKOV-3 are human breast, lung, and ovary cancer cell lines, respectively. NCI/ADR is a multi-drug resistant breast cancer cell line. CCRF-CEM and CCRF-CEM/PTX are human leukemia cell lines, the latter being a paclitaxel-resistant subline.

NCI/ADR = test: inhibition of tumor cell proliferation, NCI/ADR; format: cell-based; settings: read-out: Tumor Cell Line (IC50, nM) NCI/ADR
Procedure: as §1

MCF-7 = test: inhibition of tumor cell proliferation, MCF-7; format: cell-based, human
Procedure: as §1

A549 = test: inhibition of tumor cell proliferation, A549; format: cell-based, human
Procedure: as §1

SKOV-3 = test: inhibition of tumor cell proliferation, SKOV-3; format: cell-based, human
Procedure: as §1

CCRF-CEM/PTX = test: inhibition of tumor cell proliferation, CCRF-CEM/PTX; format: cell-based, human; settings: read-out: Tumor Cell Line (IC50, nM) CCRF-CEM/PTX
Procedure: as §1

[1] = Homo sapiens, MCF7, read-out: Tumor Cell Line (IC50, nM) MCF-7
[2] = Homo sapiens, A549, read-out: Tumor Cell Line (IC50, nM) A549
[3] = Homo sapiens, SK-OV-3, read-out: Tumor Cell Line (IC50, nM) SKOV-3

For CCC(=C/[C@H](C)C/C=C/C(C)=C/[C@@H](C)C(=O)[C@@H](C)[C@H](O)[C@@H](C)C/C(C)=C/C(=O)OCc1cccc2cccnc12)/C=C/[C@@H]1OC(=O)C=C[C@@H]1C [Compound 3], the IC50 (CCRF-CEM; Homo sapiens, CCRF-CEM) was 5.6 nM, the IC50 (NCI/ADR; Homo sapiens, NCI/ADR-RES) was 270 nM and the IC50 (MCF-7; [1]) was 3.7 nM. It also gave an IC50 (A549; [2]) of 5.3 nM, an IC50 (SKOV-3; [3]) of 24 nM and an IC50 (CCRF-CEM/PTX; Homo sapiens, CCRF-CEM) of 14 nM.
Compound “LMB methyl ester [Compound 4, reference compound]” has an IC50 (CCRF-CEM; human leukemia cell line) of 0.55 nM, an IC50 (NCI/ADR; multi-drug resistant breast cancer cell line) of 13.1 nM and an IC50 (MCF-7; human breast cancer cell line, read-out: Tumor Cell Line (IC50, nM) MCF-7) of 1.9 nM. The IC50 (A549; human lung cancer cell line, read-out: Tumor Cell Line (IC50, nM) A549) was 2.4 nM, the IC50 (SKOV-3; human ovary cancer cell line, read-out: Tumor Cell Line (IC50, nM) SKOV-3) was 8.2 nM and the IC50 (CCRF-CEM/PTX; human leukemia cell line, paclitaxel-resistant subline) was 0.63 nM.
CCC(=C/[C@H](C)C/C=C/C(C)=C/[C@@H](C)C(=O)[C@@H](C)[C@H](O)[C@@H](C)C/C(C)=C/C(=O)OCc1ccccc1)/C=C/[C@@H]1OC(=O)C=C[C@@H]1C [Compound 1] was tested, and the IC50 (CCRF-CEM; Homo sapiens, CCRF-CEM) was 2.7 nM, the IC50 (NCI/ADR; Homo sapiens, NCI/ADR-RES) was 38 nM and the IC50 (MCF-7; [1]) was 3 nM. For the same compound, the IC50 (A549; [2]) was 5.3 nM, the IC50 (SKOV-3; [3]) was 17 nM and the IC50 (CCRF-CEM/PTX; Homo sapiens, CCRF-CEM) was 4.8 nM.
For CCC(=C/[C@H](C)C/C=C/C(C)=C/[C@@H](C)C(=O)[C@@H](C)[C@H](O)[C@@H](C)C/C(C)=C/C(=O)OCC(=O)OC)/C=C/[C@@H]1OC(=O)C=C[C@@H]1C [Compound 2], the IC50 (CCRF-CEM; Homo sapiens, CCRF-CEM) was 1.1 nM, the IC50 (NCI/ADR; Homo sapiens, NCI/ADR-RES) was 5.2 nM and the IC50 (MCF-7; [1]) was 0.33 nM. The IC50 (A549; [2]) was 2.3 nM, the IC50 (SKOV-3; [3]) was 5.3 nM and the IC50 (CCRF-CEM/PTX; Homo sapiens, CCRF-CEM) was 1 nM.
For CCC(=C/[C@H](C)C/C=C/C(C)=C/[C@@H](C)C(=O)[C@@H](C)[C@H](O)[C@@H](C)C/C(C)=C/C(=O)O)/C=C/[C@@H]1OC(=O)C=C[C@@H]1C [LMB, Leptomycin B, reference compound], the IC50 (CCRF-CEM; CCRF-CEM, human leukemia cell line) was 0.65 nM, the IC50 (NCI/ADR; Homo sapiens, NCI/ADR-RES, multi-drug resistant breast cancer cell line) was 1 nM and the IC50 (MCF-7; MCF7, human breast cancer cell line, read-out: Tumor Cell Line (IC50, nM) MCF-7) was 0.29 nM. The IC50 (A549; A549, human lung cancer cell line, read-out: Tumor Cell Line (IC50, nM) A549) was 0.3 nM, the IC50 (SKOV-3; SK-OV-3, human ovary cancer cell line, read-out: Tumor Cell Line (IC50, nM) SKOV-3) was 1.5 nM and the IC50 (CCRF-CEM/PTX; CCRF-CEM, human leukemia cell line, paclitaxel-resistant subline) was 0.41 nM.
